The record followed here is US12171756B2, “NLRP3 modulators” (Innate Tumor Immunity, Inc., priority 2017, dated 2024).

Structures are written as SMILES. Structures can show the parent of a compound that is named as a salt. Where two headings read alike, the source gives them in different places.

For one assay, the target named is T1, human TLR7 (Homo sapiens, UniProt Q9NYK1).
T1 construct: host or cells: human HEK-Blue cells (HEK293-derived) co-expressing TLR7 and an NF-kB/AP1-inducible SEAP reporter
T1 sequence (Q9NYK1 27-1049): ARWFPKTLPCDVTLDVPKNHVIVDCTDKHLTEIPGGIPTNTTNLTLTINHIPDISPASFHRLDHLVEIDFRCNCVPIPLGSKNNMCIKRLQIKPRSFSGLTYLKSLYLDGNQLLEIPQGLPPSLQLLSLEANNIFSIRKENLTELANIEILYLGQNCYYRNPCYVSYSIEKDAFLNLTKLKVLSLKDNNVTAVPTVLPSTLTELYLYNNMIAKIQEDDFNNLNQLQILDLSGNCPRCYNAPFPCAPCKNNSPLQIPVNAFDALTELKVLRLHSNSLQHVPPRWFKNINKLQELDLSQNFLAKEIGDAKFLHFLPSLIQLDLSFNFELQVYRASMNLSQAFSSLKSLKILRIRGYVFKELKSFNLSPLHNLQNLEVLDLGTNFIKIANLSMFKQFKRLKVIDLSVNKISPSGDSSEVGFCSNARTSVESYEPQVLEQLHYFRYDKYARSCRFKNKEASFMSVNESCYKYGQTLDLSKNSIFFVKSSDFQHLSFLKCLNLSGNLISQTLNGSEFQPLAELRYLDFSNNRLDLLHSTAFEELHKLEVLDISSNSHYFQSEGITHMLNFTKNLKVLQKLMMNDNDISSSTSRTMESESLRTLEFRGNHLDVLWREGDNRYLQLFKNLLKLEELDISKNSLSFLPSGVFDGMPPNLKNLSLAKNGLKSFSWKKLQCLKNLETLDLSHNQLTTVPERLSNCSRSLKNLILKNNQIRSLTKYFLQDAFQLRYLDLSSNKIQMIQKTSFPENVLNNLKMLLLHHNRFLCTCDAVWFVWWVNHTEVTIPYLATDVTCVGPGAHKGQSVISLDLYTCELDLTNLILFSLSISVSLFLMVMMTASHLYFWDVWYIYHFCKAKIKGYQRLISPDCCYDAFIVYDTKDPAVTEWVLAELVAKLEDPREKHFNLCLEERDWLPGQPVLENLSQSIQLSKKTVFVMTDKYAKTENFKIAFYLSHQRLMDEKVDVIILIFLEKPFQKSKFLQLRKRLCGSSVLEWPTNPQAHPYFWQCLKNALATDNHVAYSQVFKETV
As to the kind of experiment: In vitro human TLR7 binding reporter assay (HEK-Blue, NF-kB/AP1-inducible SEAP). In kind it is cell-based. To be noted: HEK-Blue human TLR7 SEAP reporter cells; activity range classes; read-out: TLR7 Agonist EC50. In outline:
(§1)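 Cells are seeded and grown for 24 h. Compounds or DMSO are then added and incubated 18 h at 37 °C. Quanti-Blue is added, and SEAP is read after thirty minutes. EC50 values are normalized, with RLU from 50 μM reference standard setting 100% Ymax.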

Assay [1] has as its system IL-1β production in PMA-differentiated THP-1 cells. As to the kind of experiment: Measurement of IL-1β production in PMA-differentiated THP-1 cells (ELISA, 4 hours). It counts as cell-based, human. To be noted: assayed using one or more of the described procedures, read-out: NLRP3 hIL1B IC50. In outline: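 IL-1β released into supernatant was measured by ELISA after a 4-hour compound exposure (final DMSO 1%, concentrations such as 100 down to 0.1 μM). Cells: THP-1 pretreated 24 h with 10 μg/ml PMA, then trypsinized and seeded at 1×10^6/ml in 2% FBS RPMI.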
Background: In an ELISA, binding on a coated surface is turned into a signal by an enzyme label.

The target of another assay is T2, human TLR8 (Homo sapiens, UniProt Q9NR97).
T2 construct: host or cells: human HEK-Blue cells (HEK293-derived) co-expressing TLR8 and an NF-kB/AP1-inducible SEAP reporter
T2 sequence (Q9NR97 27-1041): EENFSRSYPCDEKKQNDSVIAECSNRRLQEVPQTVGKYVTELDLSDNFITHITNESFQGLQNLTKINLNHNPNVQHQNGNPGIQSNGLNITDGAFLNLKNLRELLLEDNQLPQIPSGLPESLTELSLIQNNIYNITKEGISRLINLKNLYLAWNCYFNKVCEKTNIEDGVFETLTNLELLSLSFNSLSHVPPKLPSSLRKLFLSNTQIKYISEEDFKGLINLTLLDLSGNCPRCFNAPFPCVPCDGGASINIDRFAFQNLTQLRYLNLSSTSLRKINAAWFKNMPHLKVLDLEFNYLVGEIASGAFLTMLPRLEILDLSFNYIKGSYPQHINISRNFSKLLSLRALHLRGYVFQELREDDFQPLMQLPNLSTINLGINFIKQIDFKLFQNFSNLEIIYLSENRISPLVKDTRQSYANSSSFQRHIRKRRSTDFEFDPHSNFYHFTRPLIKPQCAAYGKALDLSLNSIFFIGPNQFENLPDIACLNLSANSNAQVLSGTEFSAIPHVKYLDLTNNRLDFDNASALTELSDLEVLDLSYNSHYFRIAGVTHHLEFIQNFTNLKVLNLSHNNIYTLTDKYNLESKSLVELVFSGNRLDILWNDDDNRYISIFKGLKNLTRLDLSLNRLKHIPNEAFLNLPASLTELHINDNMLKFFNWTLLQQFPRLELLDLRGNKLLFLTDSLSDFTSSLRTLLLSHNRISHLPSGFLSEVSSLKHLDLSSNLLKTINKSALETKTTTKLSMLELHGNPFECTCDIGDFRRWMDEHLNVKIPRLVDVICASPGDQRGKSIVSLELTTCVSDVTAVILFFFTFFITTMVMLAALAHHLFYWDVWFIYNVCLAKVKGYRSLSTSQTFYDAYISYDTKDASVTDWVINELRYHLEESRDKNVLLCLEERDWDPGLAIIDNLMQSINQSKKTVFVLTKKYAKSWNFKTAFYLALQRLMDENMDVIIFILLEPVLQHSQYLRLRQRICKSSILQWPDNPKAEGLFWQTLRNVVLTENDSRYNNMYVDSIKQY
As to the kind of experiment: In vitro human TLR8 binding reporter assay (HEK-Blue, NF-kB/AP1-inducible SEAP). In kind it is cell-based. To be noted: HEK-Blue human TLR8 SEAP reporter cells; activity range classes; read-out: TLR8 Agonist EC50. In outline: as §1

Where [2] appears, read: Homo sapiens, THP-1, human IL-1β production.

On to `Nc1cc(NC(CO)CO)c2ccc(-c3ccn[nH]3)cc2n1` [Compound 315, 2-((2-amino-7-(1H-pyrazol-5-yl)quinolin-4-yl)amino)propane-1,3-diol], for which the concentration for a half-maximal effect (EC50) on human TLR7 and on human TLR8 was over 100 µM each time. Besides, the 50% inhibitory concentration (IC50) (in general, the concentration that inhibits the measured activity by half) in assay [1] (setting [2]) was determined as 1.52 µM.
As to `Nc1cc(NCc2ncccn2)c2ccc(-c3ccn[nH]3)cc2n1` [Compound 316, 7-(1H-pyrazol-5-yl)-N4-(pyrimidin-2-ylmethyl)quinoline-2,4-diamine], the EC50 on human TLR7 and on human TLR8 was over 100 µM in each case. The IC50 in assay [1] (setting [2]) was 0.56 µM.
Turning to `Nc1cc(NCc2cncnc2)c2ccc(-c3ccn[nH]3)cc2n1` [Compound 317], the EC50 on human TLR7 and at human TLR8 was over 100 µM throughout. Moreover, the concentration for half-maximal inhibition (IC50) in assay [1] (setting [2]) was determined as 0.69 µM.
Consider `Nc1cc(NCCCO)c2cc(F)c(-c3ccn[nH]3)cc2n1` [Compound 318, 3-((2-amino-6-fluoro-7-(1H-pyrazol-5-yl)quinolin-4-yl)amino)propan-1-ol], for which the EC50 on human TLR7 and at human TLR8 was over 100 µM each time. In addition, in assay [1] (setting [2]), the IC50 worked out at 0.07 µM.
On to `Cc1cc2c(NCCCO)cc(N)nc2cc1-c1ccn[nH]1` [Compound 319], for which the EC50 on human TLR7 and at human TLR8 was over 100 µM in each case. Also, the IC50 in assay [1] (setting [2]) turned out to be 25.7 µM.
In the case of `COc1cc2c(NCCCO)cc(N)nc2cc1-c1ccn[nH]1` [Compound 320], the concentration for a half-maximal effect (EC50) on human TLR7 and on human TLR8 was over 100 µM throughout. Moreover, in assay [1] (setting [2]), the IC50 came out at 27.7 µM.
`Nc1cc(NCCc2cccs2)c2ccc(-c3cc[nH]n3)cc2n1` [Compound 322, 7-(1H-pyrazol-3-yl)-N4-(2-(thiophen-2-yl)ethyl)quinoline-2,4-diamine]: the EC50 on human TLR7 and at human TLR8 was over 100 µM in each case. The IC50 in assay [1] (setting [2]) worked out at 0.61 µM.
For the compound `Nc1cc(N[C@@H]2CCNC2)c2ccc(-c3ccn[nH]3)cc2n1` [Compound 323], the 50% effective concentration (EC50) at human TLR7 and on human TLR8 was over 100 µM in each case. Besides, the half-maximal inhibitory concentration (IC50) in assay [1] (human IL-1β production) is 5.72 µM.
For the compound `Nc1cc(N[C@H]2CCCNC2)c2ccc(-c3ccn[nH]3)cc2n1` [Compound 324], the EC50 at human TLR7 and at human TLR8 was over 100 µM throughout. In addition, the IC50 in assay [1] (setting [2]) turned out to be 1.76 µM.
As for `Nc1cc(NCC2CNC2)c2ccc(-c3ccn[nH]3)cc2n1` [Compound 325], the half-maximal effective concentration (EC50) on human TLR7 and on human TLR8 was over 100 µM in each case. The 50% inhibitory concentration (IC50) in assay [1] (setting [2]) came out at 23.2 µM.
As to `Nc1cc(NC[C@@H]2CCCNC2)c2ccc(-c3ccn[nH]3)cc2n1` [Compound 326], the EC50 at human TLR7 and at human TLR8 was over 100 µM in each case. In addition, in assay [1] (setting [2]), the IC50 was determined as 24.7 µM.
On to `Nc1cc(NCC2CCNC2)c2ccc(-c3ccn[nH]3)cc2n1` (stereo not drawn) [Compound 327], for which the EC50 on human TLR7 and at human TLR8 was over 100 µM throughout. The 50% inhibitory concentration (IC50) in assay [1] (setting [2]) was found to be 4.66 µM.
For the compound `Nc1cc(OCCc2ccsc2)c2ccc(-c3cc[nH]n3)cc2n1` [Compound 329, 7-(1H-pyrazol-3-yl)-4-(2-(thiophen-3-yl)ethoxy)quinolin-2-amine], the EC50 at human TLR7 and on human TLR8 was over 100 µM throughout. The IC50 in assay [1] (setting [2]) is 0.67 µM.
Consider `Nc1cc(OCCc2ccsc2)c2ccc(-c3cccs3)cc2n1` [Compound 330], for which the EC50 on human TLR7 and on human TLR8 was over 100 µM each time. Moreover, in assay [1] (setting [2]), the half-inhibitory concentration (IC50) came out at 24.6 µM.
Turning to `Nc1cc(OCCc2ccsc2)c2ccc(-c3ccsc3)cc2n1` [Compound 331], the EC50 at human TLR7 and at human TLR8 was over 100 µM in each case. The concentration for half-maximal inhibition (IC50) in assay [1] (setting [2]) turned out to be 14.6 µM.
With `Nc1cc(OCC2(CO)COC2)c2ccc(-c3ccsc3)cc2n1` [Compound 332, (3-(((2-amino-7-(thiophen-3-yl)quinolin-4-yl)oxy)methyl)oxetan-3-yl)methanol], the EC50 at human TLR7 and at human TLR8 was over 100 µM each time. Also, in assay [1] (setting [2]), the IC50 was determined as 0.65 µM.
As for `Nc1cc(OCC2(CO)COC2)c2ccc(-c3ccn[nH]3)cc2n1` [Compound 333], the EC50 on human TLR7 and on human TLR8 was over 100 µM throughout. Further, the IC50 in assay [1] (setting [2]) was determined as 1.31 µM.
In the case of `Nc1cc(OCC2(CO)CCC2)c2ccc(-c3cccs3)cc2n1` [Compound 334, (1-(((2-amino-7-(thiophen-2-yl)quinolin-4-yl)oxy)methyl)cyclobutyl)methanol], the 50% effective concentration (EC50) on human TLR7 and on human TLR8 was over 100 µM each time. Further, the IC50 in assay [1] (setting [2]) stood at 2.62 µM.
Turning to `Nc1cc(OCC2(CO)CCC2)c2ccc(-c3ccn[nH]3)cc2n1` [Compound 335], the EC50 at human TLR7 and at human TLR8 was over 100 µM throughout. Besides, in assay [1] (setting [2]), the 50% inhibitory concentration (IC50) came out at 0.63 µM.
On to `Nc1cc(OCC2(CO)CCC2)c2ccc(-c3ccsc3)cc2n1` [Compound 336], for which the 50% effective concentration (EC50) at human TLR7 and on human TLR8 was over 100 µM in each case. In addition, the 50% inhibitory concentration (IC50) in assay [1] (setting [2]) was 2.03 µM.
Turning to `Nc1cc(OCCCC(F)(F)F)c2ccc(-c3ccsc3)cc2n1` [Compound 337], the EC50 at human TLR7 and on human TLR8 was over 100 µM each time. Moreover, the IC50 in assay [1] (setting [2]) came out at 9.17 µM.
On to `Nc1cc(NCC2(CO)COC2)c2ccc(-c3ccsc3)cc2n1` [Compound 338, (3-(((2-amino-7-(thiophen-3-yl)quinolin-4-yl)amino)methyl)oxetan-3-yl)methanol], for which the EC50 on human TLR7 and at human TLR8 was over 100 µM throughout. Also, the IC50 in assay [1] (setting [2]) turned out to be 3.41 µM.
Regarding `Nc1cc(-c2ccn[nH]2)c2ccc(-c3ccn[nH]3)cc2n1` [Compound 339, 4,7-di(1H-pyrazol-5-yl)quinolin-2-amine, HCl], the EC50 on human TLR7 and on human TLR8 was over 100 µM in each case. In addition, the half-inhibitory concentration (IC50) in assay [1] (setting [2]) was found to be 0.48 µM.
Take `Nc1cc(NCCc2cccnn2)c2ccc(-c3cc[nH]n3)cc2n1` [Compound 340, 7-(1H-pyrazol-3-yl)-N4-(2-(pyridazin-3-yl)ethyl)quinolin-2,4-diamine]: the EC50 on human TLR7 and on human TLR8 was over 100 µM in each case. The IC50 in assay [1] (setting [2]) was determined as 0.73 µM.
For `Nc1cc(NCCc2cccnn2)c2ccc(-c3ccsc3)cc2n1` [Compound 341, N4-(2-(pyridazin-3-yl)ethyl)-7-(thiophen-3-yl)quinolin-2,4-diamine], the EC50 at human TLR7 and at human TLR8 was over 100 µM throughout. Moreover, the IC50 in assay [1] (setting [2]) worked out at 0.62 µM.
